Results: the supplement of paper PMC10307832

Experiments:
Assay in all cases: relative viability (nuclei count vs DMSO), 5 days (fraction); higher = more cells survive
[1] = compound: Cc1cc(Nc2cc(N3CCN(C)CC3)nc(Sc3ccc(NC(=O)C4CC4)cc3)n2)n[nH]1 [Tozasertib] + O=C(CCCCCCC(=O)Nc1ccccc1)NO [Vorinostat] (partner 1 µM)
Outline: (§1)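 Cells from lung cancer lines were seeded into 1536-well plates and, one day later, dosed by pin tool. Treatments were either a single drug or a fixed dose of an anchor drug with five library-drug doses (not always all listed) in √10 steps. After 5 days, nuclei were stained in a one-step fixation (final 0.05% Triton X-100, 1% formaldehyde, 1 ug/ml Hoechst) and counted on 4× images, and relative viability is the treated-to-vehicle nuclei ratio, as the median of duplicate plates.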

[2] = compound: Cc1cc(Nc2cc(N3CCN(C)CC3)nc(Sc3ccc(NC(=O)C4CC4)cc3)n2)n[nH]1 [Tozasertib] + Nc1nc2[nH]cc(CCc3ccc(C(=O)N[C@@H](CCC(=O)O)C(=O)O)cc3)c2c(=O)[nH]1 [Pemetrexed] (partner 0.2 µM)
Outline: as §1

[3] = compound: Cc1cc(Nc2cc(N3CCN(C)CC3)nc(Sc3ccc(NC(=O)C4CC4)cc3)n2)n[nH]1 [Tozasertib] + COc1cccc2cc(-c3nc([C@H]4CC[C@H](C(=O)O)CC4)n4ncnc(N)c34)[nH]c12 [OSI-027] (partner 0.5 µM)
Outline: as §1

[4] = compound: Cc1cc(Nc2cc(N3CCN(C)CC3)nc(Sc3ccc(NC(=O)C4CC4)cc3)n2)n[nH]1 [Tozasertib] + CC(=O)c1c(C)c2cnc(Nc3ccc(N4CCNCC4)cn3)nc2n(C2CCCC2)c1=O [Palbociclib] (partner 0.5 µM)
Outline: as §1

[5] = compound: Cc1cc(Nc2cc(N3CCN(C)CC3)nc(Sc3ccc(NC(=O)C4CC4)cc3)n2)n[nH]1 [Tozasertib] + NC(=O)Nc1cc(-c2cccc(F)c2)sc1C(=O)N[C@H]1CCCNC1 [AZD7762] (partner 0.2 µM)
Outline: as §1

[6] = compound: Cc1cc(Nc2cc(N3CCN(C)CC3)nc(Sc3ccc(NC(=O)C4CC4)cc3)n2)n[nH]1 [Tozasertib] + Nc1ncn([C@H]2C[C@H](O)[C@@H](CO)O2)c(=O)n1 [Decitabine] (partner 2 µM)
Outline: as §1

[7] = compound: Cc1cc(Nc2cc(N3CCN(C)CC3)nc(Sc3ccc(NC(=O)C4CC4)cc3)n2)n[nH]1 [Tozasertib] + O=C(c1cc(Cc2n[nH]c(=O)c3ccccc23)ccc1F)N1CCN(C(=O)C2CC2)CC1 [Olaparib] (partner 8 µM)
Outline: as §1

[8] = compound: Cc1cc(Nc2cc(N3CCN(C)CC3)nc(Sc3ccc(NC(=O)C4CC4)cc3)n2)n[nH]1 [Tozasertib] + CC(=O)Nc1cccc(-n2c(=O)n(C3CC3)c(=O)c3c(Nc4ccc(I)cc4F)n(C)c(=O)c(C)c32)c1 [Trametinib] (partner 0.02 µM)
Outline: as §1

[9] = compound: Cc1cc(Nc2cc(N3CCN(C)CC3)nc(Sc3ccc(NC(=O)C4CC4)cc3)n2)n[nH]1 [Tozasertib]
Outline: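 Viability was defined as treated-well nuclei divided by vehicle-well nuclei, with the median taken over replicate plates. Cells from lung cancer lines sat overnight at 37 °C in 1536-well plates, received five √10-spaced library-drug doses by pinning on vehicle-anchored plates, and grew 5 days without medium change before one-step fixation, permeabilisation and Hoechst staining, 4× imaging and MetaXpress nuclear counts. Only plates with control CV under 25% and at least one doubling were kept.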

[10] = compound: Cc1cc(Nc2cc(N3CCN(C)CC3)nc(Sc3ccc(NC(=O)C4CC4)cc3)n2)n[nH]1 [Tozasertib] + Cc1nc(Nc2ncc(C(=O)Nc3c(C)cccc3Cl)s2)cc(N2CCN(CCO)CC2)n1 [Dasatinib] (partner 0.075 µM)
Outline: as §1

[11] = compound: Cc1cc(Nc2cc(N3CCN(C)CC3)nc(Sc3ccc(NC(=O)C4CC4)cc3)n2)n[nH]1 [Tozasertib] + N=C(N)NC(=N)NCCc1ccccc1 [Phenformin] (partner 250 µM)
Outline: as §1

[12] = compound: Cc1cc(Nc2cc(N3CCN(C)CC3)nc(Sc3ccc(NC(=O)C4CC4)cc3)n2)n[nH]1 [Tozasertib] + COc1cc2c(Oc3ccc(NC(=O)C4(C(=O)Nc5ccc(F)cc5)CC4)cc3F)ccnc2cc1OCCCN1CCOCC1 [Foretinib] (partner 0.25 µM)
Outline: as §1

[13] = compound: Cc1cc(Nc2cc(N3CCN(C)CC3)nc(Sc3ccc(NC(=O)C4CC4)cc3)n2)n[nH]1 [Tozasertib] + CCNC(=O)c1noc(-c2cc(C(C)C)c(O)cc2O)c1-c1ccc(CN2CCOCC2)cc1 [Luminespib] (partner 0.01 µM)
Outline: as §1

Question: With NCI-H1648 as the cell line, how does the relative viability ([1]; first compound 0.004 µM) read?
Answer: 0.42

Question: And the relative viability ([1]; first compound 0.01265 µM)?
Answer: 0.296

Question: And the relative viability ([1]; first compound 0.04 µM)?
Answer: 0.425

Question: What about the relative viability ([1]; first compound 0.1265 µM) of the same cell line?
Answer: 0.379

Question: What about the relative viability ([2]; first compound 0.004 µM) of the same cell line?
Answer: 0.891

Question: And the relative viability ([2]; first compound 0.01265 µM)?
Answer: 0.665

Question: What about the relative viability ([2]; first compound 0.04 µM) of the same cell line?
Answer: 0.773

Question: And the relative viability ([2]; first compound 0.1265 µM)?
Answer: 0.615

Question: What about the relative viability ([3]; first compound 0.1265 µM) of the same cell line?
Answer: 0.237

Question: And the relative viability ([4]; first compound 0.004 µM)?
Answer: 0.279

Question: What about the relative viability ([4]; first compound 0.01265 µM) of the same cell line?
Answer: 0.304

Question: What about the relative viability ([4]; first compound 0.04 µM) of the same cell line?
Answer: 0.276

Question: And the relative viability ([4]; first compound 0.1265 µM)?
Answer: 0.255

Question: And the relative viability ([5]; first compound 0.004 µM)?
Answer: 0.717

Question: What about the relative viability ([5]; first compound 0.01265 µM) of the same cell line?
Answer: 0.619

Question: And the relative viability ([5]; first compound 0.04 µM)?
Answer: 0.596

Question: And the relative viability ([5]; first compound 0.1265 µM)?
Answer: 0.393

Question: What about the relative viability ([6]; first compound 0.004 µM) of the same cell line?
Answer: 0.461

Question: And the relative viability ([6]; first compound 0.01265 µM)?
Answer: 0.461

Question: And the relative viability ([6]; first compound 0.04 µM)?
Answer: 0.383

Question: What about the relative viability ([6]; first compound 0.1265 µM) of the same cell line?
Answer: 0.401

Question: What about the relative viability ([7]; first compound 0.004 µM) of the same cell line?
Answer: 1.64

Question: And the relative viability ([7]; first compound 0.01265 µM)?
Answer: 0.767

Question: And the relative viability ([7]; first compound 0.04 µM)?
Answer: 0.844

Question: And the relative viability ([7]; first compound 0.1265 µM)?
Answer: 0.531

Question: And the relative viability ([8]; first compound 0.004 µM)?
Answer: 0.488

Question: What about the relative viability ([8]; first compound 0.01265 µM) of the same cell line?
Answer: 0.444

Question: What about the relative viability ([8]; first compound 0.04 µM) of the same cell line?
Answer: 0.425

Question: What about the relative viability ([8]; first compound 0.1265 µM) of the same cell line?
Answer: 0.41

Question: What about the relative viability ([9]; 0.01265 µM) of the same cell line?
Answer: 0.779

Question: What about the relative viability ([9]; 0.04 µM) of the same cell line?
Answer: 0.743

Question: What about the relative viability ([9]; 0.1 µM, anchor plate) of the same cell line?
Answer: 0.497

Question: And the relative viability ([9]; 0.1265 µM)?
Answer: 0.79

Question: Which relative viability ([1]; first compound 0.004 µM) does the source give for SW 900 here?
Answer: 0.579

Question: And the relative viability ([1]; first compound 0.01265 µM)?
Answer: 0.436

Question: And the relative viability ([1]; first compound 0.1265 µM)?
Answer: 0.266

Question: And the relative viability ([10]; first compound 0.004 µM)?
Answer: 0.79

Question: What about the relative viability ([10]; first compound 0.01265 µM) of the same cell line?
Answer: 0.51

Question: What about the relative viability ([10]; first compound 0.04 µM) of the same cell line?
Answer: 0.503

Question: What about the relative viability ([10]; first compound 0.1265 µM) of the same cell line?
Answer: 0.567

Question: What about the relative viability ([2]; first compound 0.004 µM) of the same cell line?
Answer: 0.516

Question: And the relative viability ([2]; first compound 0.04 µM)?
Answer: 0.498

Question: What about the relative viability ([2]; first compound 0.1265 µM) of the same cell line?
Answer: 0.408

Question: What about the relative viability ([3]; first compound 0.004 µM) of the same cell line?
Answer: 0.767

Question: And the relative viability ([3]; first compound 0.01265 µM)?
Answer: 0.54

Question: And the relative viability ([3]; first compound 0.04 µM)?
Answer: 0.75

Question: What about the relative viability ([3]; first compound 0.1265 µM) of the same cell line?
Answer: 0.28

Question: What about the relative viability ([11]; first compound 0.004 µM) of the same cell line?
Answer: 0.583

Question: What about the relative viability ([11]; first compound 0.01265 µM) of the same cell line?
Answer: 0.381

Question: And the relative viability ([11]; first compound 0.04 µM)?
Answer: 0.708

Question: What about the relative viability ([11]; first compound 0.1265 µM) of the same cell line?
Answer: 0.586

Question: What about the relative viability ([4]; first compound 0.004 µM) of the same cell line?
Answer: 0.62

Question: And the relative viability ([4]; first compound 0.01265 µM)?
Answer: 0.536

Question: And the relative viability ([4]; first compound 0.04 µM)?
Answer: 0.542

Question: What about the relative viability ([4]; first compound 0.1265 µM) of the same cell line?
Answer: 0.382

Question: What about the relative viability ([5]; first compound 0.004 µM) of the same cell line?
Answer: 0.485

Question: What about the relative viability ([5]; first compound 0.01265 µM) of the same cell line?
Answer: 0.72

Question: And the relative viability ([5]; first compound 0.04 µM)?
Answer: 0.622

Question: And the relative viability ([5]; first compound 0.1265 µM)?
Answer: 0.467

Question: And the relative viability ([6]; first compound 0.004 µM)?
Answer: 0.43

Question: What about the relative viability ([6]; first compound 0.01265 µM) of the same cell line?
Answer: 0.442

Question: What about the relative viability ([6]; first compound 0.04 µM) of the same cell line?
Answer: 0.347

Question: And the relative viability ([6]; first compound 0.1265 µM)?
Answer: 0.375

Question: What about the relative viability ([12]; first compound 0.004 µM) of the same cell line?
Answer: 0.914

Question: And the relative viability ([12]; first compound 0.01265 µM)?
Answer: 0.825

Question: What about the relative viability ([12]; first compound 0.04 µM) of the same cell line?
Answer: 1.08

Question: And the relative viability ([12]; first compound 0.1265 µM)?
Answer: 0.638

Question: What about the relative viability ([7]; first compound 0.004 µM) of the same cell line?
Answer: 0.802

Question: What about the relative viability ([7]; first compound 0.01265 µM) of the same cell line?
Answer: 0.809

Question: And the relative viability ([7]; first compound 0.04 µM)?
Answer: 0.851

Question: What about the relative viability ([7]; first compound 0.1265 µM) of the same cell line?
Answer: 0.619

Question: And the relative viability ([13]; first compound 0.004 µM)?
Answer: 0.167

Question: What about the relative viability ([13]; first compound 0.01265 µM) of the same cell line?
Answer: 0.188

Question: What about the relative viability ([13]; first compound 0.04 µM) of the same cell line?
Answer: 0.205

Question: What about the relative viability ([13]; first compound 0.1265 µM) of the same cell line?
Answer: 0.173

Question: And the relative viability ([8]; first compound 0.004 µM)?
Answer: 0.653

Question: What about the relative viability ([8]; first compound 0.01265 µM) of the same cell line?
Answer: 0.798

Question: What about the relative viability ([8]; first compound 0.04 µM) of the same cell line?
Answer: 0.911

Question: And the relative viability ([8]; first compound 0.1265 µM)?
Answer: 0.509

Question: And the relative viability ([9]; 0.004 µM)?
Answer: 1.06

Question: What about the relative viability ([9]; 0.01265 µM) of the same cell line?
Answer: 0.736

Question: What about the relative viability ([9]; 0.04 µM) of the same cell line?
Answer: 0.933

Question: What about the relative viability ([9]; 0.1 µM, anchor plate) of the same cell line?
Answer: 0.566

Question: And the relative viability ([9]; 0.1265 µM)?
Answer: 0.62
